Columns and labels:
Histone deacetylase 1 = Histone deacetylase 1 (Homo sapiens, UniProt Q13547); experiment: Inhibition of HDAC1 (unknown origin) using trypsin and LGK(Ac)-AMC as substrates incubated for 1 hr and measured by fluorescence assay
Adenosine receptor A2a = Adenosine receptor A2a (Homo sapiens, UniProt P29274); experiment: Displacement of [3H][…] from human A2AAR incubated for 60 mins by scintillation counter analysis
Adenosine receptor A1 = molecular target: T1, Adenosine receptor A1 (Homo sapiens, UniProt P30542); experiment: Displacement of [3H]DPCPX from human A1AR incubated for 60 mins by scintillation counter analysis
T1 sequence (P30542 whole entry): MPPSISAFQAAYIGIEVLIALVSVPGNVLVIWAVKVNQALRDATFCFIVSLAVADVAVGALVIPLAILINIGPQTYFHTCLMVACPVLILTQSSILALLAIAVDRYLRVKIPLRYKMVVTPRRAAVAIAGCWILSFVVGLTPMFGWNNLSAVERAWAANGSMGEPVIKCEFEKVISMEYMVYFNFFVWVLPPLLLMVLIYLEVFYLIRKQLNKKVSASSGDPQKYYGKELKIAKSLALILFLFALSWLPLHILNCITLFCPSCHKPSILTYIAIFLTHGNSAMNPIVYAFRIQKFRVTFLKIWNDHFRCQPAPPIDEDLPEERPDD

MC-38 = experiment: Antiproliferative activity against mouse MC38 cells after 72 hrs by CCK-8 assay; format: functional
[1] = Cmax in male ICR mouse at 20 mg/kg, po measured up to 24 hrs by LC-MS/MS analysis; format: ADME, organism-based; design: time < 24 hrs, dose 20 mg/kg, route po; conditions: in vivo
Adenosine receptor A2b = molecular target: T2, Adenosine receptor A2b (Homo sapiens, UniProt P29275); experiment: Displacement of [3H]DPCPX from human A2BAR incubated for 60 mins by scintillation counter analysis
T2 sequence (P29275 whole entry): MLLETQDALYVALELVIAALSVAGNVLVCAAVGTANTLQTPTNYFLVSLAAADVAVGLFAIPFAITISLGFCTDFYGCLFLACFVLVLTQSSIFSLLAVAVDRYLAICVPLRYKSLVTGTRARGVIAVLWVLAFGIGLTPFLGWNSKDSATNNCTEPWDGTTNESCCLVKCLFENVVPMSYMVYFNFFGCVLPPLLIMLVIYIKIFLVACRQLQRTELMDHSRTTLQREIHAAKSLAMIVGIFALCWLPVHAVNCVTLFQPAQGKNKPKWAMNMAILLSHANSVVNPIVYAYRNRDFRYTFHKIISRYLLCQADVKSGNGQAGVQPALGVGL

CT26 = experiment: Antiproliferative activity against mouse CT26 cells after 72 hrs by CCK-8 assay; format: functional
Adenosine receptor A3 = molecular target: T3, Adenosine receptor A3 (Homo sapiens, UniProt P0DMS8); experiment: Displacement of [3H]HEMADO from human A3AR incubated for 60 mins by scintillation counter analysis
T3 sequence (P0DMS8 whole entry): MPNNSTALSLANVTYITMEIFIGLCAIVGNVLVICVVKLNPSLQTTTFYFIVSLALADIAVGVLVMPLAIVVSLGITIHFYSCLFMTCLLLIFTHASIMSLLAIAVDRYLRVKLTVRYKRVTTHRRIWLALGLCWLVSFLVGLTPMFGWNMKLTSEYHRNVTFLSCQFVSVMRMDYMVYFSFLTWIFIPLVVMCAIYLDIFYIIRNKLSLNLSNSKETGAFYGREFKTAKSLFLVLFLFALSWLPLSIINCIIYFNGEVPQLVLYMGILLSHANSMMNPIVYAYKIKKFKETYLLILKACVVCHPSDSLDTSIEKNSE

[2] = Mean residence time in male ICR mouse at 20 mg/kg, po measured up to 24 hrs by LC-MS/MS analysis; format: ADME, organism-based; conditions: in vivo
[3] = AUC (0 to t) in male ICR mouse at 20 mg/kg, po measured up to 24 hrs by LC-MS/MS analysis; format: ADME, organism-based; design: time < 24 hrs, dose 20 mg/kg, route po; conditions: in vivo
[4] = Elimination rate constant in male ICR mouse at 20 mg/kg, po measured up to 24 hrs by LC-MS/MS analysis; format: ADME, organism-based; conditions: in vivo
[5] = Half-life in male ICR mouse at 20 mg/kg, po measured up to 24 hrs by LC-MS/MS analysis; format: ADME, organism-based; conditions: in vivo
[6] = Tmax in male ICR mouse at 20 mg/kg, po measured up to 24 hrs by LC-MS/MS analysis; format: ADME, organism-based; conditions: in vivo

Chain of Adenosine receptor A2a (P29274 whole entry): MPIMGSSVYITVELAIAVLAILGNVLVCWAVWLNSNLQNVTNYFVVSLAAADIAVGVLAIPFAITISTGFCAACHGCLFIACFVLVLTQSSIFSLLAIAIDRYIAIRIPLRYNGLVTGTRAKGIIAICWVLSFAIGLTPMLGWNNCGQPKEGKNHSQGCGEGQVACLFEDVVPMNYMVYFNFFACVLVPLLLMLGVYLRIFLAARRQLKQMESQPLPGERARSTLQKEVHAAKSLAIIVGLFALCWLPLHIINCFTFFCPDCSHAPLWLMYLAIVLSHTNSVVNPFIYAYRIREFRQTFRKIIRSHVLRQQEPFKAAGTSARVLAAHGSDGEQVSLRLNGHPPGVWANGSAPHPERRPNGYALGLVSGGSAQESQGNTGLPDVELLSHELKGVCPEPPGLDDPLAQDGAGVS
Chain of Histone deacetylase 1 (Q13547 whole entry): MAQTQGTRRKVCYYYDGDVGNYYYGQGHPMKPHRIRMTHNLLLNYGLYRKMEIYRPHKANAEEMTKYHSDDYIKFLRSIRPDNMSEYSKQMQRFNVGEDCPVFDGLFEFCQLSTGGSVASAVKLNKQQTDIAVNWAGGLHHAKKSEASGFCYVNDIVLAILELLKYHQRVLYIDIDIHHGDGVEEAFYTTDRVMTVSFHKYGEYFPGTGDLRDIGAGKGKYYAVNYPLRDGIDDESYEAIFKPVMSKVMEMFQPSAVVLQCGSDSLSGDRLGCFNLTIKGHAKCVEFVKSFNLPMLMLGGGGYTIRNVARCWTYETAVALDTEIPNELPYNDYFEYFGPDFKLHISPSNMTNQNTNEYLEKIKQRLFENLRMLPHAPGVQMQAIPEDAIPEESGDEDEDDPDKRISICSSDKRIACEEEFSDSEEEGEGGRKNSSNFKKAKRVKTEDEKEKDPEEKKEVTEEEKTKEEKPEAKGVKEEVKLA

Structure (SMILES)	IC50 (Histone deacetylase 1)	Ki (Adenosine receptor A2a)	GI50 (CT26)	GI50 (MC-38)	other results
Cc1ccc(-c2nc(N)nc3c2cnn3Cc2cccc(/C=C/C(=O)Nc3ccccc3N)c2)o1	2530 nM	25 nM	–	–	–
Cc1ccc(-c2nc(N)nc3c2cnn3Cc2cccc(/C=C/C(=O)NO)c2)o1	14.5 nM	378 nM	–	–	–
Nc1nc(-c2ccco2)c2cnn(Cc3cccc(OCCCCCCC(=O)NO)n3)c2n1	23 nM	14.7 nM	5800 nM	5060 nM	Ki (Adenosine receptor A1): 641 nM; Cmax [1]: 608 ng/mL; Ki (Adenosine receptor A2b): 2500 nM; Ki (Adenosine receptor A3): > 10000 nM; MRT [2]: 1.16 h; AUC(0-t) at 24 h [3]: 302 ng·h/mL; k el at 24 h [4]: 0.000131 s⁻¹; half-life [5]: 1.48 h; Tmax [6]: 0.25 h
Cc1ccc(-c2nc(N)nc3c2cnn3CCCCCC(=O)NO)o1	7.3 nM	617 nM	–	–	–
Nc1nc(-c2ccco2)c2cnn(CCOc3ccc(C(=O)Nc4ccccc4N)cc3)c2n1	105 nM	974 nM	–	–	–
Nc1nc(-c2ccco2)c2cnn(CCc3ccc(C(=O)NO)cc3)c2n1	126 nM	436 nM	–	–	–
Nc1nc(-c2ccco2)c2cnn(Cc3ccc(N)c(OCCCCCCC(=O)NO)c3)c2n1	37 nM	15 nM	22800 nM	28200 nM	–
Cc1ccc(-c2nc(N)nc3c2cnn3Cc2cccc(OCCCCCC(=O)NO)c2)o1	95 nM	12.3 nM	18900 nM	23200 nM	–
Cc1ccc(-c2nc(N)nc3c2cnn3Cc2cccc(OCCCCCC(=O)NO)n2)o1	210 nM	72.8 nM	–	–	–
Cc1ccc(-c2nc(N)nc3c2cnn3Cc2ccc(N)c(OCCCCCCC(=O)NO)c2)o1	45 nM	74.3 nM	19600 nM	26700 nM	–
Nc1nc(-c2ccco2)c2cnn(CCCc3ccc(C(=O)Nc4ccccc4N)cc3)c2n1	186 nM	140 nM	7560 nM	6960 nM	–
Nc1nc(-c2ccco2)c2cnn(Cc3cccc(/C=C/C(=O)NO)c3)c2n1	8.4 nM	130 nM	2320 nM	1910 nM	Cmax [1]: 122 ng/mL; MRT [2]: 9.54 h; AUC(0-t) at 24 h [3]: 182 ng·h/mL; k el at 24 h [4]: 2.69e-05 s⁻¹; half-life [5]: 7.53 h; Tmax [6]: 0.25 h
Nc1nc(-c2ccco2)c2cnn(Cc3cccc(OCCCCCC(=O)NO)c3)c2n1	86 nM	10.9 nM	9990 nM	9820 nM	–
O=C(CCCCCCC(=O)Nc1ccccc1)NO [VORINOSTAT]	–	–	2350 nM	2740 nM	–
Nc1nc(-c2ccco2)c2cnn(CCCc3ccc(C(=O)NO)cc3)c2n1	64.5 nM	863 nM	–	–	–
Cc1ccc(-c2nc(N)nc3c2cnn3CCCCCCCC(=O)NO)o1	7.2 nM	585 nM	–	–	–
Nc1nc(-c2ccco2)c2cnn(Cc3ccc(C(=O)Nc4ccccc4N)cc3)c2n1	17.5 nM	1720 nM	–	–	–
Cc1ccc(-c2nc(N)nc3c2cnn3Cc2cccc(OCCCCCCC(=O)NO)n2)o1	29.5 nM	159 nM	7680 nM	6410 nM	–
Nc1nc(-c2ccco2)c2cnn(Cc3cccc(OCCCCC(=O)NO)n3)c2n1	420 nM	50.7 nM	–	–	–
Nc1nc(-c2ccco2)c2cnn(Cc3ccc(C(=O)NO)cc3)c2n1	12.8 nM	863 nM	–	–	–
Nc1nc(-c2ccco2)c2cnn(CCOc3ccc(C(=O)NO)cc3)c2n1	11.1 nM	> 10000 nM	–	–	–
Nc1nc(-c2ccco2)c2cnn(Cc3cccc(OCCCCCC(=O)NO)n3)c2n1	192 nM	68.3 nM	–	–	–
Cc1ccc(-c2nc(N)nc3c2cnn3CCc2ccc(C(=O)Nc3ccccc3N)cc2)o1	126 nM	125 nM	9130 nM	7970 nM	–
Cc1ccc(-c2nc(N)nc3c2cnn3CCCCC(=O)NO)o1	228 nM	1830 nM	–	–	–
Nc1ccccc1NC(=O)c1ccc(CNc2nccc(-c3cccnc3)n2)cc1 [MOCETINOSTAT]	–	–	1770 nM	1640 nM	–
Nc1nc(-c2ccco2)c2cnn(CCCCC(=O)NO)c2n1	394 nM	1560 nM	–	–	–

Further molecules by falling IC50 (Histone deacetylase 1), results first:

IC50 (Histone deacetylase 1)	Ki (Adenosine receptor A2a)	GI50 (CT26)	Structure (SMILES)	GI50 (MC-38)	other results
1180 nM	35.8 nM	–	Nc1nc(-c2ccco2)c2cnn(Cc3cccc(/C=C/C(=O)Nc4ccccc4N)c3)c2n1	–	–
573 nM	72 nM	–	Cc1ccc(-c2nc(N)nc3c2cnn3Cc2cccc(OCCCCC(=O)NO)n2)o1	–	–
226 nM	107 nM	–	Cc1ccc(-c2nc(N)nc3c2cnn3CCCOc2ccc(C(=O)Nc3ccccc3N)cc2)o1	–	–
206 nM	25.9 nM	–	Cc1ccc(-c2nc(N)nc3c2cnn3Cc2cccc(OCCCCC(=O)NO)c2)o1	–	–
190 nM	147 nM	> 30000 nM	Nc1nc(-c2ccco2)c2cnn(CCCOc3ccc(C(=O)Nc4ccccc4N)cc3)c2n1	> 30000 nM	–
151 nM	7.3 nM	–	Nc1nc(-c2ccco2)c2cnn(Cc3cccc(OCCCCC(=O)NO)c3)c2n1	–	–
116 nM	> 10000 nM	–	Nc1nc(-c2ccco2)c2cnn(Cc3ccc(/C=C/C(=O)Nc4ccccc4N)cc3)c2n1	–	–
73.5 nM	295 nM	–	Cc1ccc(-c2nc(N)nc3c2cnn3CCc2ccc(C(=O)NO)cc2)o1	–	–
45 nM	> 10000 nM	–	Cc1ccc(-c2nc(N)nc3c2cnn3Cc2ccc(C(=O)Nc3ccccc3N)cc2)o1	–	–
42.5 nM	52.8 nM	13200 nM	Cc1ccc(-c2nc(N)nc3c2cnn3Cc2cccc(OCCCCCCC(=O)NO)c2)o1	11300 nM	–
14 nM	2540 nM	–	Cc1ccc(-c2nc(N)nc3c2cnn3Cc2ccc(C(=O)NO)cc2)o1	–	–
9.3 nM	276 nM	–	Nc1nc(-c2ccco2)c2cnn(CCCCCCCC(=O)NO)c2n1	–	–
9.3 nM	777 nM	–	Nc1nc(-c2ccco2)c2cnn(CCCCCC(=O)NO)c2n1	–	–
7.1 nM	3590 nM	–	Nc1nc(-c2ccco2)c2cnn(Cc3ccc(/C=C/C(=O)NO)cc3)c2n1	–	–
2.4 nM	301 nM	33000 nM	Nc1nc(-c2ccco2)c2cnn(CCCCCCC(=O)NO)c2n1	350 nM	–
2.2 nM	334 nM	–	Cc1ccc(-c2nc(N)nc3c2cnn3CCCCCCC(=O)NO)o1	–	–

Reference: ChEMBL document CHEMBL5154845, “Dual-acting antitumor agents targeting the A2A adenosine receptor and histone deacetylases: Design and synthesis of 4-(furan-2-yl)-1H-pyrazolo[3,4-d]pyrimidin-6-amine derivatives” (Eur J Med Chem, 2022)
